In patent US20090209605A1, “NEMATICIDAL COMPOSITIONS” (Devgen N.V., priority 2004, published 2009):

Columns and labels:
Assay type in all cases: in vivo
[1] = tested on: Meloidogyne incognita; assay: Root infestation on agar plate: root knot count on potato microplant roots; details: 60 μM in agar, galls counted 5 weeks after inoculation, four replicates
Procedure: 9 cm petri dishes were filled with a 15 ml agar. One stem cutting of a potato microplant (Solanum tuberosum cv. Desirée) was placed on top of the agar layer. After 2 to 3 weeks of incubation at 20° C., the root system was sufficiently developed to be inoculated.
The test compounds (see Table 1) were added 2 days before inoculation by way of spreading a 2 ml DMSO-solution with the compound over the agar and allowing the compound to diffuse in the agar during two days at constant temperature of 20° C. During incubation, the plates are protected from light in a dark incubator. The resulting concentration of each compound in each agar plate was 60 μM.
After incubation, approximately 400 axenic juveniles of Meloidogyne incognita species were added to the plate.
The plates were incubated in the dark at a constant temperature of 20° C. and 5 weeks after inoculation the number of galls formed on the roots were determined by counting. Also any toxic effect of the test compounds on the roots was recorded. 8 weeks after inoculation the plates were stored at low temperature.
Each compound was tested in four replicates. Positive controls were treated with different concentrations of Aldicarb, a known nematicide. Negative controls included 5 replicates of double negative controls (no compound, no nematode), 5 replicates of single negative controls (no compound, with nematode) and 5 replicates of DMSO controls (DMSO solution, with nematode).

[2] = tested on: Meloidogyne nematodes; assay: Pot Assay 2: Meloidogyne infection of tomato, % infestation of roots; details: for % INF. (% Infestation): tomato in infested soil
Procedure: The soil used in this assay originated from a plot, heavily infested with Meloidogyne nematodes. Part of this soil was sterilized by autoclaving and was used as negative control. Sandy soil, which was not infested with nematodes, was pursued from a commercial source.
Plastic seedling trays with wells of 60 ml capacity were filled with about 40 ml of soil per well. 5 ml of water per well was used for irrigation.
Compounds as described herein were tested in 4 different rates and with 12 replicates for each concentration. The compounds as described herein were stored as dry films of 4 different concentrations. The day of the application of the compounds, all the dry films were dissolved in 60 ml water and poured into the 12 replicate wells: 5 ml per well. Every tray of 12 wells was identified with a label, indicating compound and concentration used. The 4 final rates in the soil of the tested compound were approximately 0.05 mg, 0.20 mg, 1 mg and 5 mg. These amounts translate to field application rates respectively as 30, 120, 600 and 3000 g per hectare.
3-5 days after application of the tested compound, tomato seeds (cv. Rio Grande) were sown in the wells by hand, at about 2 cm deep. A light cover of vermiculite on the surface was used to avoid dehydration. Plants were irrigated by micro-nebulization 3-4 times per week at a rate of 3 L/m^2, weeded by hand and treated with fertilizers, fungicide and insecticides when needed.
Their resistance against nematode infection was monitored and the efficacy of compounds described herein as a nematicide was measured. Furthermore the phytotoxicity of the test compounds was evaluated.
Efficacy of the compounds described herein as nematicide was measured by giving the roots a percentage of infestation measured as follows. Plants were grown to reach good development of the roots, which corresponds to plants grown to about 10 cm high at about one month after emergence. After removal of the soil from the roots by rinsing with water, the roots were visually inspected and root galls were counted on 4 plants of the set of 12 replicate plants.
Positive control plants were treated with a 10 micromolar concentration of oxamyl (Vydate, 10% SL; the rate of 10 micromolar corresponds to a commercial rate of 20 l/ha), a known nematicide. Negative controls involved double negative controls (no compound, sterile soil), and single negative controls (no compound, with nematode infested soil).

[3] = tested on: Meloidogyne incognita nematodes; assay: Pot Assay 1: Meloidogyne infection of potato, egg masses/galls on roots; details: for number of egg masses (galls) on roots, Replicate 1 / number of egg masses (galls) on roots, Replicate 2 / number of egg masses (galls) on roots, Replicate 3: potato in pot, week 8 after inoculation
Procedure: 500 ml clay pots were filled with 400 ml of silver sand. One tuber of potato ( Solanum tuberosum cv. Bintje) was planted in the sand. After 2 to 3 weeks incubation, the potato plant was sufficiently developed to be inoculated.
Plants were grown under the usual standard greenhouse conditions at 14° C.-18° C., with 16 hours light and 8 hours dark and 80-90% relative humidity. The pots were watered using individual drippers and fertilizers were added under the form of macro- and micro nutrients according to plant growth requirements. When needed, the plants were sprayed with fungicides and insecticides.
The compounds as described herein were added one day before inoculation. The compounds were dissolved in a 20 ml DMSO-solution and spread over the sand surface. The final concentration is calculated under the assumption that the compound is diffused entirely in the pot. This process occurred during two days at the normal greenhouse conditions described above.
After compound incubation, approximately 1500 juveniles of Meloidogyne incognita nematodes were added to the pots.
The pots were incubated at the described greenhouse conditions until nematode development was completed. At week 8 after inoculation the number of galls formed on the roots was counted after washing off the sandy substrate. Also the effect of the compound on the plant development was recorded.
Every compound was tested in three replicates. Positive control plants were treated with different concentrations of aldicarb, a known nematicide. Negative controls involved 12 replicates of double negative controls (no compound, no nematode), 12 replicates of single negative controls (no compound, no DMSO, with nematode), 24 replicates of DMSO controls (DMSO solution, with nematode).
As assessment of the root development was taken into account.

[4] = tested on: tomato (cv. Rio Grande); assay: Pot Assay 2: root development (vigor of roots) of tomato; details: for ROOT DEV.: visual value 0 to 10 (10 equal to control)
Procedure: Phytotoxicity of compounds as described herein when used as a nematicide, was measured as follows. […] At that moment, plant emergence was assessed for the plants treated with any of the compounds as described herein, by counting the number of plants per compound-concentration.
Vigor of roots was also assessed once the plants are well established so as not to loose plants. To assess vigor of the plants or roots, a visual value ranging from 0 to 10 (0 no vigor, 10 equal to control) was scored per compound-concentration.

[5] = highest concentration of the reference compound
[6] = reference, 10 micromolar (Vydate, 10% SL)

SMILES | Root knot count, average of the replicate counts [1] | % INF. (% Infestation) ([2]; RATE 1 mg) | ROOT DEV. ([4]; RATE 1 mg) | % INF. (% Infestation) ([2]; RATE 0.05 mg) | % INF. (% Infestation) ([2]; RATE 0.2 mg) | ROOT DEV. ([4]; RATE 0.05 mg) | ROOT DEV. ([4]; RATE 0.2 mg) | other results
CC(C)=CC1C(C(=O)OCN2C(=O)C3=C(CCCC3)C2=O)C1(C)C (mixture of isomers) [LIX] | 19 |  |  |  |  |  |  | 
CC(C)=CC1C(C(=O)OCc2coc(Cc3ccccc3)c2)C1(C)C (mixture of isomers) [LVII] | 8.5 |  |  |  |  |  |  | 
CC1COC(Cn2cncn2)(c2ccc(Oc3ccc(Cl)cc3)cc2Cl)O1 (mixture of isomers) [XLIX] | 19.25 | 0.0% | 7.9 |  |  |  |  | number of egg masses (galls) on roots, Replicate 1 ([3]; 10 μM): 70; number of egg masses (galls) on roots, Replicate 2 ([3]; 10 μM): 60; number of egg masses (galls) on roots, Replicate 3 ([3]; 10 μM): 40; number of egg masses (galls) on roots, Replicate 2 ([3]; 50 μM): 60; number of egg masses (galls) on roots, Replicate 3 ([3]; 50 μM): 10
Cc1c(F)c(F)c(COC(=O)C2C(C=C(Cl)C(F)(F)F)C2(C)C)c(F)c1F (racemic) [LVIII] | 18.25 |  |  |  |  |  |  | number of egg masses (galls) on roots, Replicate 1 ([3]; 50 μM): 60; number of egg masses (galls) on roots, Replicate 2 ([3]; 50 μM): 100; number of egg masses (galls) on roots, Replicate 3 ([3]; 50 μM): 30
CNC1=C(c2cccc(C(F)(F)F)c2)C(=O)C(c2ccccc2)O1 (racemic) [XV] | 18 |  |  |  |  |  |  | 
CNC(=O)O/N=C/C(C)(C)SC [Aldicarb, reference compound] |  |  |  |  |  |  |  | egg mass development (number of egg masses) [3, 5]: 41; reduction of the egg mass development, fraction of control [3, 5]: about ⅓; effect on the nematode development ([3]; three lowest concentrations of the reference compound): no effect
CCC(N)P(=O)(O)O (stereo not drawn) [II] | 6.5 | 0.0% | 7.3 | 0.0% | 0.0% | 6.7 | 7.3 | % INF. (% Infestation) ([2]; RATE 5 mg): 0.0%; ROOT DEV. ([4]; RATE 5 mg): 7.9
N#Cc1c(Cl)c(Cl)c(Cl)c(C#N)c1Cl [IV] | 11.5 |  |  |  |  |  |  | 
CCNC(=O)NC(=O)C(C#N)=NOC [LII] | 15.5 |  |  |  |  |  |  | 
Cc1cccc(C)c1N(C(=O)CCl)C1CCOC1=O (stereo not drawn) [LIV] | 14.5 | 3.8% | 7.6 | 5.0% | 5.0% | 7.5 | 7.2 | % INF. (% Infestation) ([2]; RATE 5 mg): 2.5%; ROOT DEV. ([4]; RATE 5 mg): 6.6
O=C(NC(=O)c1c(F)cccc1F)Nc1cc(Cl)c(Oc2ncc(C(F)(F)F)cc2Cl)c(Cl)c1 [LI] | 17.5 |  |  |  |  |  |  | 
COCC(=O)N(c1c(C)cccc1C)N1CCOC1=O [LV] | 17.75 |  |  |  |  |  |  | 
CNC(=O)O/N=C(\SC)C(=O)N(C)C [Oxamyl, reference compound] |  | 13.8% | 7.5 |  |  |  |  | percentage of infestation [2, 6]: 13.8%; root development [4, 6]: 7.5
CC(C)N(C(=O)COc1nnc(C(F)(F)F)s1)c1ccc(F)cc1 [XIII] | 9.5 |  |  |  |  |  |  | number of egg masses (galls) on roots, Replicate 3 ([3]; 10 μM): 40; number of egg masses (galls) on roots, Replicate 1 ([3]; 50 μM): 60; number of egg masses (galls) on roots, Replicate 3 ([3]; 50 μM): 30
CC(C)(C)N(NC(=O)c1ccc(Cl)cc1)C(=O)c1ccccc1 [XIX] | 10.75 |  |  |  |  |  |  | number of egg masses (galls) on roots, Replicate 3 ([3]; 10 μM): 80; number of egg masses (galls) on roots, Replicate 1 ([3]; 50 μM): 60; number of egg masses (galls) on roots, Replicate 2 ([3]; 50 μM): 45; number of egg masses (galls) on roots, Replicate 3 ([3]; 50 μM): 20
Clc1nc(Cl)nc(Nc2ccccc2Cl)n1 [XLII] | 17.25 | 0.0% | 8.2 | 3.8% | 0.0% | 6.8 | 6.9 | % INF. (% Infestation) ([2]; RATE 5 mg): 0.0%; ROOT DEV. ([4]; RATE 5 mg): 8.1
CC(C)(C)C(O)C(Oc1ccc(-c2ccccc2)cc1)n1cncn1 (stereo not drawn) [XLVIII] | 12.75 | 3.8% | 7.2 | 0.0% | 1.3% | 7.5 | 7.4 | % INF. (% Infestation) ([2]; RATE 5 mg): 1.3%; ROOT DEV. ([4]; RATE 5 mg): 7.8
Cc1cc(C)nc(Nc2ccccc2)n1 [XLVI] | 18.25 |  |  |  |  |  |  | 
Nc1nc(N)nc(NC2CC2)n1 [XLV] | 19.5 |  |  |  |  |  |  | 
O=[N+]([O-])N=C1NCCN1Cc1ccc(Cl)nc1 [XXII] | 12 |  |  |  |  |  |  | 
C#CCOC(=O)/C=C(C)/C=C/CC(C)CCCC(C)C (stereo not drawn) [XXVIII] | 8.5 |  |  | 2.5% | 1.3% | 7.4 | 7.8 | 
CS(=O)(=O)c1cc(C(F)(F)F)ccc1C(=O)c1cnoc1C1CC1 [XXVI] | 8.75 | 0.0% | 7.8 | 1.3% | 3.8% | 7.4 | 6.6 | 
CCOc1ccc([Si](C)(C)CCCc2ccc(F)c(Oc3ccccc3)c2)cc1 [XXXIII] | 17.5 |  |  |  |  |  |  | 
CCCCOCCOCCOCc1cc2c(cc1CCC)OCO2 [XXXII] | 19.25 | 1.3% | 7.6 | 0.0% | 0.0% | 6.5 | 7.6 | % INF. (% Infestation) ([2]; RATE 5 mg): 2.5%; ROOT DEV. ([4]; RATE 5 mg): 6.7
CCc1nn(C)c(C(=O)NCc2ccc(C(C)(C)C)cc2)c1Cl [XXXVIII] | 16.5 |  |  |  |  |  |  | number of egg masses (galls) on roots, Replicate 1 ([3]; 50 μM): 40; number of egg masses (galls) on roots, Replicate 2 ([3]; 50 μM): 70; number of egg masses (galls) on roots, Replicate 3 ([3]; 50 μM): 1
COc1ccc(/C(=C/C(=O)N2CCOCC2)c2ccc(Cl)cc2)cc1OC [X] | 10.5 |  |  | 5.0% | 1.3% | 6.8 | 7.9 | 
